# Earlier results in paper PMC8178945 (Computational and Structural Biotechnology Journal, 2021).
# Molecular target: 3CL^Pro
# Details: read-out: KD from isothermal titration calorimetry; previously obtained
smiles,measurement,value
O=c1cc(-c2ccccc2)oc2cc(O)c(O)c(O)c12 [baicalein],Kd,4.03 µM
